Experiments:
[1] = Fluorescence anisotropy decays of SG in buffer and sodium probes in Biofinity lenses; assay type: physicochemical
Procedure: Three decay time components were required for the intensity decays. Fluorescence anisotropy decays were determined by individual measurements of the polarized intensity decays with corrections for the G-factor. Resolution of multi-exponential decays is not necessary. The average lifetime can be used as a single measurement.
Similar anisotropy decays have been observed for numerous fluorophores bound to large proteins or membranes.

[2] = Chloride-dependent intensity decay analysis of SPQ-C18 in Biofinity contact lenses, phosphate buffer pH 7.2; assay type: physicochemical
Procedure: Fluorescence Spectroscopic Measurements. Fluorescence intensities and intensity decays were measured using a Varian™ Eclipse 4 spectrofluorometer and a FluoTime300 instrument from PicoQuant™ (Berlin, Germany) and analyzed with the EasyTau™ software. The excitation source was a 473 nm laser diode with a repetition rate of 40 MHZ and a pulse width less than 100 ps. In other embodiments, the excitation source for SG-PL was at 495 nm from a Solea™ supercontinuum laser (PicoQuant™, Germany) and a 375 nm laser diode (PDL 375, PicoQuant™), a repetition rate of 40 MHz, and a pulse width less than 100 ps. Some intensity and lifetime measurements for SG-PL (as indicated) were performed using Alba V confocal fluorescence lifetime microscopy, FLIM (ISS, Urbana, Ill.), with excitation source of a 473 nm laser diode with a repetition rate of 40 MHz and a pulse width near 250 ps.
Intensity decays were measured at the emission maximum with the band of 10 to 20 nm, analyzed in terms of the multi-exponential model:
I(t)=Σαi exp(−t/ti) (equation 1)
where ti are the individual decay times and αi the initial time-zero amplitudes. The mean decay time can be represented in two ways. The average lifetime is given by:
where Σαi=1.0 and Σfi=1.0. The term fi=αi τi is proportional to the fractional contribution of each component to the total intensity decay. The term τi/Σαi τi is the fractional contribution to the steady state emission. Here, we use the amplitude-weighted lifetime given by
which is appropriate when the emission is from a single fluorophore with a changing quantum yield. For a single exponential decay, the lifetime is given by τ=1.0/(knr+Γ) and the quantum yield is given by Q=Γ/(knr+Γ) where knr is the sum of all non-radiative decay rates and Γ is the radiative decay rate. The value of Γ is determined by the molecular extinction coefficient that remains constant under most conditions. For a single type of fluorophore with a constant value of Γ the normalized αi values represent the molecular fraction of each decay time component. The value of αi and τi were determined by non-linear least squares fitting using PicoQuant™ software.
Quenching by Chloride. Collisional quenching occurs, for example, when SPQ-C18 (also referred to as OD-MQB (N-Octadecyl-6-methoxyquinolinium bromide)) has a diffusion collision with a chloride ion. The intensities (I) and lifetimes (6) are analyzed using the Stern-Volmer equation,
SPQ-C18 was synthesized using 6-methoxy quinolinium (SPQ) and 1-bromooctadecane (C18) as described in the art. Lenses were labeled by incubation with 3 ml of a 1 μM solution of SPQ-C18 in methanol-water. SPQ-C18 bound rapidly to the Biofinity™ lenses. […] Unless stated otherwise, all spectral measurements conducted for the present study were performed in 20 mM MOPS buffer, 8 mM KCl, pH 7.2, at room temperature.

## COc1cc(N2CCOCCOCCN(c3cc(OC)c(NC(=O)c4ccc(-c5c6cc(Cl)c(=O)cc-6oc6cc([O-])c(Cl)cc56)c(C(=O)[O-])c4)cc3OC)CCOCC2)c(OC)cc1NC(=O)c1ccc(-c2c3cc(Cl)c(=O)cc-3oc3cc([O-])c(Cl)cc23)c(C(=O)[O-])c1.C[N+](C)(C)C.C[N+](C)(C)C.C[N+](C)(C)C.C[N+](C)(C)C [SG]
[1]
  anisotropy decay: decayed quickly to zero

## CCCCCCCCCCCCCCCCCC[n+]1cccc2cc(OC)ccc21 [SPQ-C18, N-Octadecyl-6-methoxyquinolinium bromide]
[2]; NaCl 0 mM
  f1: 0.02
  f2: 0.10
  f3: 0.88
  α1: 0.36
  α2: 0.21
  α3: 0.44
  τ1: 0.69 ns
  τ2: 5.15 ns
  τ3: 20.74 ns
  τf: 18.66 ns
  τα: 10.35 ns
[2]; NaCl 20 mM
  f1: 0.03
  f2: 0.13
  f3: 0.84
  α1: 0.41
  α2: 0.21
  α3: 0.38
  τ1: 0.65 ns
  τ2: 4.98 ns
  τ3: 17.88 ns
  τf: 15.65 ns
  τα: 8.08 ns
[2]; NaCl 50 mM
  f1: 0.03
  f2: 0.22
  f3: 0.75
  α1: 0.38
  α2: 0.29
  α3: 0.33
  τ1: 0.73 ns
  τ2: 5.54 ns
  τ3: 16.81 ns
  τf: 13.76 ns
  τα: 7.38 ns
[2]; NaCl 90 mM
  f1: 0.05
  f2: 0.26
  f3: 0.68
  α1: 0.43
  α2: 0.31
  α3: 0.26
  τ1: 0.75 ns
  τ2: 5.33 ns
  τ3: 16.41 ns
  τf: 12.49 ns
  τα: 6.18 ns
[2]; NaCl 140 mM
  f1: 0.06
  f2: 0.31
  f3: 0.62
  α1: 0.44
  α2: 0.33
  α3: 0.22
  τ1: 0.82 ns
  τ2: 5.43 ns
  τ3: 16.26 ns
  τf: 11.91 ns
  τα: 5.81 ns
[2]; NaCl 200 mM
  f1: 0.08
  f2: 0.34
  f3: 0.58
  α1: 0.48
  α2: 0.34
  α3: 0.20
  τ1: 0.77 ns
  τ2: 4.92 ns
  τ3: 15.93 ns
  τf: 11.03 ns
  τα: 4.90 ns

Reference: US20220050096A1, “ANALYTE-SENSITIVE PROBES AND CONTACT LENS FOR DIAGNOSIS OF OCULAR PATHOLOGIES” (University Of Maryland, Baltimore, priority 2020, published 2022)
